Data reported in US20210275543A1, “METHODS FOR THE TREATMENT OF MITOCHONDRIAL GENETIC DISEASES” (NSERM (INSTITUT NATIONAL DE LA SANTÉ ET DE LA RECHERCHE …, priority 2017, published 2021).

Legend:
[1] = test system: Ndufs4−/− mice; assay: PIK3CA inhibition in Ndufs4 knockout mouse model of Leigh syndrome (survival); format: in vivo; conditions: 50 mg·kg-1 daily p.o.
Text: Leigh Syndrome is a severe mitochondrial disease that occurs in about 1:40,000 newborns and is associated with retarded growth, muscular deficits including myopathy and dyspnea, lactic acidosis, and a characteristic progressive necrotizing encephalopathy of the vestibular nuclei, cerebellum, and olfactory bulb (Budde et al., 2002). Ndufs4 encodes a subunit of Complex I of the mitochondrial electron transport chain; mutations in the NDUFS4 gene cause LS in humans (Budde et al., 2000), and the Ndufs4 knockout mouse is a murine model of LS (Kruse et al., 2008). Ndufs4−/− mice have decreased Complex I levels and activity in multiple tissues and show severe and progressive symptoms of mitochondrial disease that mirror human LS. LS results in death at an average of […] in humans, and Ndufs4 KO mice show a similar early-life mortality with an average lifespan of just 60 days. Heterozygous Ndufs4 knockout mice on a C57Bl/6NIA background were bred to produce homozygous KO animals. Animals were fed ad libitum and housed at a constant ambient temperature in a 12-hour light cycle. Animal procedures were approved by the “Services Vétérinaires de la Prefecture de Police de Paris” Departmental Director and by the ethical committee of the Paris Descartes University.
At the age of 21 days, Ndufs4−/− mice were treated with the PI3KCA inhibitor, BYL719 (MedChem Express; 50 mg·kg-1 in 0.5% carboxymethylcellulose (Sigma Aldrich), daily p.o.) (n=9) or vehicle (0.5% carboxymethylcellulose (Sigma Aldrich), daily p.o.) (n=8).

[2] = test system: phosphorylated ribosomal protein S6 (mTORC1 signaling); assay: Analysis of S6 phosphorylation by western blotting in primary dermal fibroblasts; format: cell-based, human; conditions: for S6 phosphorylation (phosphorylated ribosomal protein S6 vs total rpS6, GAPDH): 48 hours of treatment, 5 μmol/L BYL719
Experimental: (§1) Punch skin biopsies were collected using standard methods.
(§2) To generate dermal fibroblast cultures, biopsies were minced and incubated at room temperature in 0.05% trypsin-EDTA (ThermoFisher 25300054) solution for 30 min with gentle shaking. Cells were collected by centrifuging at 700 g for 10 min, re-suspended in cell culture media containing 25% FBS, and plated onto 24 well plates to establish lines. Fibroblast cultures were grown and maintained in 1×MEM (Corning 10-010-CV) supplemented with 25% FBS and penicillin/streptomycin (Corning 30-001-CI) to a final concentration of 100 IU penicillin and 500 μg/mL streptomycin.
Cells at similar population doubling (PD-10+/−2) were plated 1:4 from confluent cultures and allowed to grow until ˜80% confluent. Media was replaced with media containing 5 μmol/L BYL719 (Chem Express) in DMSO or equal volume DMSO for 48 hours. Cultures were rinsed with 1×PBS, treated for 10 min with 0.05% Trypsin, collected by centrifugation at 4° C., and pellets were flash frozen on dry ice. Protein lysates were collected by directly adding 1×RIPA buffer (Pierce 89900) containing protease and phosphatase inhibitors (Pierce PI78441) to cell pellets, sonicating in 10 one-second bursts, on ice, with an XL-2000 QSonica at maximum output, and centrifuging to remove cell debris. Protein concentration was determined by BCA assay (Pierce PI23228), equal protein run on 4-12% bis-tris 26 well NuPage midigels (Fisher WG1403), and transferred to nitrocellulose blots (Fisher IB23001). Blots were blocked in LICOR Odyssey blocking buffer (LICOR 427-40100), probed with primary antibodies anti-pS6, anti-S6, and anti-GAPDH (Cell Signaling 4858P, 2217S, and 2118S, respectively) followed by secondary antibody IRDye800 donkey anti-rabbit (LICOR 925-32213) and imaged using LICOR Odyssey Clx scanning imager as previously described^9. Data quantified using NIH ImageJ^11.

[3] = test system: primary dermal fibroblasts from patients with mitochondrial disorders and controls; assay: Analysis of mitochondrial membrane potential and morphology (TMRE / 10-NAO staining, confocal microscopy and flow cytometry); format: cell-based, human
Experimental: as §1, §2
Cells at similar population doubling (PD-10+/−2) were plated 1:4 from confluent cultures onto coverglass chamberslides and allowed to grow until ˜80% confluent. Media was replaced and supplemented with […] BYL719 (Chem Express) in DMSO (Fisher BP321-1), or equal volume DMSO, for 48 hours. Cells were stained for 15 min in media with 100 nM tetramethylrhodamine ethyl ester (TMRE, Fisher BDB564696) and 5 μg/mL Hoechst 33342 (Biotium 89139-126) and imaged on a Leica SP5 confocal microscope. Samples were treated and imaged in one session using identical imaging parameters. Flow cytometry analysis was performed by staining cells with only TMRE or 10-N-nonyl acridine orange (10-NAO), dissociating with trypsin-EDTA containing dye for 10 min at room temperature, collecting cells by centrifugation, resuspension in cold PBS, and analysis on a BD Canto II flow cytometer using 488 nm excitation with 585/42 BP and 530/30 BP filters for TMRE and 10-NAO, respectively. A single gate was set to cells using forward and side scatter and all settings unchanged throughout data collection. 10,000 or more events were collected for every sample.

[4] = primary MELAS patient and control fibroblast lines, FIG. 1A

**Q.** Which results are given for `Cc1nc(NC(=O)N2CCC[C@H]2C(N)=O)sc1-c1ccnc(C(C)(C)C(F)(F)F)c1` [BYL719, Alpelisib]?
**A.** animal survival ([1]; Ndufs4−/− mice treated from age 21 days, vs vehicle, FIG. 2): dramatically improved animal survival; appearance of treated animals ([1]; Ndufs4−/− mice, 120 days later): overtly normal appearance; time alive ([1]; Ndufs4−/− mice, all placebo-treated mice died within 80 days): ≥ 120 days; pS6 levels ([2]; all cell lines (patients with mitochondrial disorders and controls), 48 hours, FIGS. 1A and 1B): reduced pS6 levels in all cell lines; S6 phosphorylation (phosphorylated ribosomal protein S6 vs total rpS6, GAPDH) ([2]; other mitochondrial disorders and control fibroblast lines, FIG. 1B): inhibited S6 phosphorylation; S6 phosphorylation (phosphorylated ribosomal protein S6 vs total rpS6, GAPDH) [2, 4]: inhibited S6 phosphorylation; mitochondrial membrane potential (TMRE staining intensity) and morphology (fragmentation, depolarized mitochondria) ([3]; MELAS fibroblasts, 48 hours, confocal microscopy, FIG. 1C): attenuated these phenotypes in all MELAS fibroblasts; membrane potential (TMRE) by flow cytometry ([3]; MELAS fibroblasts, flow cytometry, data not shown): rescue; mitochondrial membrane potential (TMRE staining intensity) and morphology ([3]; control cells, 48 hours, confocal microscopy, FIG. 1C): no overt impact

**Q.** How did the “S6 phosphorylation (phosphorylated ribosomal protein S6 vs total rpS6, GAPDH)” value [2, 4] turn out when cyclosporin A was run?
**A.** no significant impact
